21 compounds from patent US8859584B2, “TRPV1 antagonists” (AbbVie Inc., priority 2011, dated 2014) can be followed below.

The target in experiment [1] is T1, human TRPV1 (Homo sapiens, UniProt Q8NER1).
T1 construct: expressed in transfected cells
Description: Acid Activation Assay (pH 5.0, FLIPR intracellular Ca2+, recombinant HEK293 cells). It counts as cell-based. To be noted: percentage of maximal pH 5.0-induced response remaining; HEK293 hTRPV1; max concentration 37.5 μM. The gist of the method:
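HEK293 cells stably expressing recombinant hTRPV1 were loaded with calcium dye for 90-120 min at 25° C and pre-treated with compound for 3 min before a pH 5.0 (DPBS/MES) challenge. Peak FLIPR fluorescence over baseline is given as percentage of the maximal pH 5.0-induced response.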

Experiment [2] deals with T1, human TRPV1. Description: Capsaicin Activation Assay (FLIPR intracellular Ca2+, recombinant HEK293 cells). In kind it is cell-based. The following applies: recombinant HEK293 cells expressing hTRPV1; 50 nM capsaicin; read-out: human TRPV1 capsaicin IC50.

T1 sequence (Q8NER1 whole entry): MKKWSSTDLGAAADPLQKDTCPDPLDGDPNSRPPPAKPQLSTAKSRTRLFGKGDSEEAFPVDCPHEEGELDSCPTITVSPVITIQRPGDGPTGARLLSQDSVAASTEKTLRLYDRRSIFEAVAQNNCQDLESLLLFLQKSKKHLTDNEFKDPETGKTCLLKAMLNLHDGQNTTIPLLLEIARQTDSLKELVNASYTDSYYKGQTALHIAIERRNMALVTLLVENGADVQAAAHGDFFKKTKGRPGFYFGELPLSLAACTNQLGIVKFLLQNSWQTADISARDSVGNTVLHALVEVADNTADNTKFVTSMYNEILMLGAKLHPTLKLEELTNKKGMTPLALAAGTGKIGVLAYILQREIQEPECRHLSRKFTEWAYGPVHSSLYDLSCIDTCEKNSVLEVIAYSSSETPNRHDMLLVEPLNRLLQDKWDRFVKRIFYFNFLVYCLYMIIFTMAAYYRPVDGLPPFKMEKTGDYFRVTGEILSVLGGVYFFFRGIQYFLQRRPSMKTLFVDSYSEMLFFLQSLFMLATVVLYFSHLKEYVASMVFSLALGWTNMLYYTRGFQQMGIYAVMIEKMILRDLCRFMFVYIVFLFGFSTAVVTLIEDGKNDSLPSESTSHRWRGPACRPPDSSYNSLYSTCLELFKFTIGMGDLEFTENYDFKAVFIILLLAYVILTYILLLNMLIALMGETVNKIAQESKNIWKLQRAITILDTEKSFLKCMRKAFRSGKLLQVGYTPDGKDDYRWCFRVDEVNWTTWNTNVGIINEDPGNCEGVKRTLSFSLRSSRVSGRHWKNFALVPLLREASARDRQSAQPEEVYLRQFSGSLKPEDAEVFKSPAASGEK

Take `CCC1(CC)C[C@@H](NC(=O)Nc2cccc3c2C[C@H](O)C3)c2ccc(C(F)(F)F)cc2O1` [Example 53, 1-[(4R)-2,2-diethyl-7-(trifluoromethyl)-3,4-dihydro-2H-chromen-4-yl]-3-[(2R)-2-hydroxy-2,3-dihydro-1H-inden-4-yl]urea]: on human TRPV1 [1], the “human TRPV1 H+ (max % remain)” value was determined as 37%. For the same compound, on human TRPV1 [2], the half-inhibitory concentration (IC50) (as a rule, the point on the concentration scale where inhibition reaches its midpoint) came to 0.051 µM.

As for `O=C(Nc1cccc2c1CC(O)C2)NC1CC(c2ccc(Cl)cc2)Oc2ccccc21` (stereo not drawn) [Example 117, 1-[2-(4-chlorophenyl)-3,4-dihydro-2H-chromen-4-yl]-3-(2-hydroxy-2,3-dihydro-1H-inden-4-yl)urea], the “human TRPV1 H+ (max % remain)” value on human TRPV1 [1] amounted to 45%. In addition, on human TRPV1 [2], the 50% inhibitory concentration (IC50) amounted to 0.13 µM.

Turning to `COc1ccc2c(c1)OCC(Cc1ccc(Cl)c(Cl)c1)C2NC(=O)Nc1cccc2c1CC(O)C2` (stereo not drawn) [Example 114, 1-[3-(3,4-dichlorobenzyl)-7-methoxy-3,4-dihydro-2H-chromen-4-yl]-3-(2-hydroxy-2,3-dihydro-1H-inden-4-yl)urea], on human TRPV1 [1], the “human TRPV1 H+ (max % remain)” value is listed as 43%. Besides, the IC50 at human TRPV1 [2] turned out to be 0.72 µM.

On to `C[C@]1(CF)C[C@@H](NC(=O)Nc2c(F)ccc3c2C[C@@H](O)C3)c2ccc(Cl)cc2O1` [Example 100, 1-[(2R,4R)-7-chloro-2-(fluoromethyl)-2-methyl-3,4-dihydro-2H-chromen-4-yl]-3-[(2S)-5-fluoro-2-hydroxy-2,3-dihydro-1H-inden-4-yl]urea], for which the “human TRPV1 H+ (max % remain)” value on human TRPV1 [1] was 30%. In addition, the IC50 at human TRPV1 [2] was 0.033 µM.

“1-(5-chloro-2,3-dihydro-1H-inden-1-yl)-3-(7-fluoro-2-hydroxy-2,3-dihydro-1H-inden-4-yl)urea [Example 174]”: the “human TRPV1 H+ (max % remain)” value at human TRPV1 [1] is given as 29%. Further, at human TRPV1 [2], the IC50 amounted to 0.42 µM.

As to `O=C(Nc1cccc2c1C[C@@H](O)C2)N[C@H]1CC2(CCC2)Oc2ccc(F)cc21` [Example 102, 1-[(4S)-6-fluoro-3,4-dihydrospiro[chromene-2,1′-cyclobutan]-4-yl]-3-[(2S)-2-hydroxy-2,3-dihydro-1H-inden-4-yl]urea], the “human TRPV1 H+ (max % remain)” value at human TRPV1 [1] was 63%. In addition, at human TRPV1 [2], the IC50 turned out to be 2.8 µM.

In the case of `CC1(C)C[C@@H](NC(=O)Nc2ccc(F)c3c2C[C@H](O)C3)c2ccc(F)cc2O1` [Example 138, 1-[(4R)-7-fluoro-2,2-dimethyl-3,4-dihydro-2H-chromen-4-yl]-3-[(2S)-7-fluoro-2-hydroxy-2,3-dihydro-1H-inden-4-yl]urea], the “human TRPV1 H+ (max % remain)” value on human TRPV1 [1] turned out to be 4%. For the same compound, on human TRPV1 [2], the IC50 came to 0.82 µM.

For `CC1(C)C[C@@H](NC(=O)Nc2cccc3c2C[C@H](O)C3)c2ccccc2O1` [Example 17, 1-[(4R)-2,2-dimethyl-3,4-dihydro-2H-chromen-4-yl]-3-[(2R)-2-hydroxy-2,3-dihydro-1H-inden-4-yl]urea], the “human TRPV1 H+ (max % remain)” value on human TRPV1 [1] is 82%. In addition, the IC50 at human TRPV1 [2] is 0.24 µM.

On to `CC1(C)C[C@@H](NC(=O)Nc2cccc3c2C[C@H](O)C3)c2ccc(OC(F)(F)F)cc2O1` [Example 30, 1-[(4R)-2,2-dimethyl-7-(trifluoromethoxy)-3,4-dihydro-2H-chromen-4-yl]-3-[(2R)-2-hydroxy-2,3-dihydro-1H-inden-4-yl]urea], for which the “human TRPV1 H+ (max % remain)” value at human TRPV1 [1] is on record as 39%. The IC50 on human TRPV1 [2] stood at 0.042 µM.

`O=C(Nc1cccc2c1CC(O)C2)NC1CC(c2cccc(Cl)c2)Oc2ccccc21` (stereo not drawn) [Example 110, 1-[2-(3-chlorophenyl)-3,4-dihydro-2H-chromen-4-yl]-3-(2-hydroxy-2,3-dihydro-1H-inden-4-yl)urea]: the “human TRPV1 H+ (max % remain)” value at human TRPV1 [1] turned out to be 59%. Besides, the IC50 at human TRPV1 [2] turned out to be 0.24 µM.

As for `CC(C)(C)c1ccc(Nc2ncnc3cc(-c4ncccc4C(F)(F)F)ccc23)cc1` [B, reference compound], the “human TRPV1 H+ (max % remain)” value on human TRPV1 [1] was found to be 1%. The IC50 on human TRPV1 [2] stood at 0.055 µM.

For `O=C(Nc1cccc2c1CC(O)C2)NC1CC(c2ccccc2)Oc2ccccc21` (stereo not drawn) [Example 118, 1-(2-hydroxy-2,3-dihydro-1H-inden-4-yl)-3-(2-phenyl-3,4-dihydro-2H-chromen-4-yl)urea], the “human TRPV1 H+ (max % remain)” value at human TRPV1 [1] stood at 67%. Besides, the IC50 at human TRPV1 [2] was found to be 0.061 µM.

For the compound `O=C(Nc1cccc2c1CC(O)C2)NC1c2ccccc2OCC1Cc1ccc(Cl)c(Cl)c1` (stereo not drawn) [Example 112, 1-[3-(3,4-dichlorobenzyl)-3,4-dihydro-2H-chromen-4-yl]-3-(2-hydroxy-2,3-dihydro-1H-inden-4-yl)urea], the “human TRPV1 H+ (max % remain)” value on human TRPV1 [1] is listed as 77%. Also, the IC50 at human TRPV1 [2] stood at 0.98 µM.

Turning to `CC1(C)C[C@@H](NC(=O)Nc2cccc3c2C[C@@H](O)C3)c2ccc(F)cc2O1` [Example 32, 1-[(4R)-7-fluoro-2,2-dimethyl-3,4-dihydro-2H-chromen-4-yl]-3-[(2S)-2-hydroxy-2,3-dihydro-1H-inden-4-yl]urea], the “human TRPV1 H+ (max % remain)” value at human TRPV1 [1] came to 33%. In addition, the IC50 at human TRPV1 [2] was 0.074 µM.

As for `COc1ccc(CC2COc3ccccc3C2NC(=O)Nc2cccc3c2CC(O)C3)cc1OC` (stereo not drawn) [Example 109, 1-[3-(3,4-dimethoxybenzyl)-3,4-dihydro-2H-chromen-4-yl]-3-(2-hydroxy-2,3-dihydro-1H-inden-4-yl)urea], the “human TRPV1 H+ (max % remain)” value on human TRPV1 [1] turned out to be 89%. Besides, the concentration for half-maximal inhibition (IC50) on human TRPV1 [2] came to 3.1 µM.

For the compound `O=C(Nc1cccc2c1C[C@@H](O)C2)N[C@@H]1CC2(CCC2)Oc2ccc(F)cc21` [Example 80, 1-[(4R)-6-fluoro-3,4-dihydrospiro[chromene-2,1′-cyclobutan]-4-yl]-3-[(2S)-2-hydroxy-2,3-dihydro-1H-inden-4-yl]urea], the “human TRPV1 H+ (max % remain)” value at human TRPV1 [1] was 4%. Also, the IC50 at human TRPV1 [2] turned out to be 0.11 µM.

With `O=C(Nc1cccc2c1C[C@H](O)C2)N[C@@H]1CC(CF)(CF)Oc2c1ccc(Cl)c2F` [Example 11, 1-[(4R)-7-chloro-8-fluoro-2,2-bis(fluoromethyl)-3,4-dihydro-2H-chromen-4-yl]-3-[(2R)-2-hydroxy-2,3-dihydro-1H-inden-4-yl]urea], the “human TRPV1 H+ (max % remain)” value at human TRPV1 [1] stood at 64%. In addition, the IC50 at human TRPV1 [2] worked out at 0.056 µM.

As for `O=C(Nc1cccc2c1C[C@@H](O)C2)N[C@@H]1CCOc2c(OC(F)(F)F)cccc21` [Example 73, 1-[(2S)-2-hydroxy-2,3-dihydro-1H-inden-4-yl]-3-[(4R)-8-(trifluoromethoxy)-3,4-dihydro-2H-chromen-4-yl]urea], the “human TRPV1 H+ (max % remain)” value on human TRPV1 [1] was 18%. Also, the IC50 on human TRPV1 [2] turned out to be 0.025 µM.

In the case of `CC1(C)C[C@@H](NC(=O)Nc2ccc(F)c3c2C[C@@H](O)C3)c2cc(F)ccc2O1` [Example 165, 1-[(4R)-6-fluoro-2,2-dimethyl-3,4-dihydro-2H-chromen-4-yl]-3-[(2R)-7-fluoro-2-hydroxy-2,3-dihydro-1H-inden-4-yl]urea], the “human TRPV1 H+ (max % remain)” value on human TRPV1 [1] was 49%. For the same compound, the half-inhibitory concentration (IC50) on human TRPV1 [2] is 2.6 µM.

Turning to `C[C@]1(CF)C[C@@H](NC(=O)Nc2cccc3c2C[C@H](O)C3)c2cccc(F)c2O1` [Example 66, 1-[(2R,4R)-8-fluoro-2-(fluoromethyl)-2-methyl-3,4-dihydro-2H-chromen-4-yl]-3-[(2R)-2-hydroxy-2,3-dihydro-1H-inden-4-yl]urea], the “human TRPV1 H+ (max % remain)” value on human TRPV1 [1] came to 86%. Besides, the IC50 on human TRPV1 [2] stood at 0.28 µM.

Turning to `CC1(C)C[C@@H](NC(=O)Nc2cccc3c2C[C@H](O)C3)c2cccc(F)c2O1` [Example 46, 1-[(4R)-8-fluoro-2,2-dimethyl-3,4-dihydro-2H-chromen-4-yl]-3-[(2R)-2-hydroxy-2,3-dihydro-1H-inden-4-yl]urea], the “human TRPV1 H+ (max % remain)” value at human TRPV1 [1] turned out to be 87%. The IC50 on human TRPV1 [2] came out at 0.43 µM.
